Data taken from PMC10535762 (2023).

Tested on: poly A–poly U (pApU, ds-RNA) (RNA, polymer) A/U
Test: fluorimetric titration, Scatchard fit
Conditions: Na+ (sodium cacodylate, I = 0.05 M), pH 7.0, 25 °C, recalculated for fixed n = 0.2 [bound dye]/[polynucleotide], c(nucleobase), per base

SMILES | log Ks (TB-p 5 µM) | log Ks (TB-AA 3 µM)
C#CC[N+](C)(C)c1cc(C)c(B(c2c(C)cccc2C)c2c(C)cc(N(C)C)cc2C)c(C)c1 | 7.1 | 
Cc1cccc(C)c1B(c1c(C)cc(N(C)C)cc1C)c1c(C)cc([N+](C)(C)Cc2cn(CC[C@H](NC(=O)OCC3c4ccccc4-c4ccccc43)C(=O)O)nn2)cc1C |  | 6.0
